# Test results taken from US20230130403A1, “METHODS OF TREATMENT WITH S1P RECEPTOR MODULATORS” (PRIOTHERA SAS, priority 2021, published 2023).
# Read-outs that look alike come from different tables or passages of the source.
# Key:
# [1] = test system: bronchoconstrictor response induced by challenge agents; assay: Safety pharmacology: bronchoconstrictor response in rats; format: in vivo, rat; conditions: rats pre-treated with 3 mg/kg
# Excerpt: (§1) Based on the available in vitro and in vivo data, except for the potential to cause a negative chronotropic effect and some mild increase in blood pressure, there is no indication that KRP203 would cause arrhythmia or QT prolongation in man.
# [2] = test system: bacterial mutation; assay: In vitro genotoxicity: bacterial mutation; format: cell-based
# [3] = dog, in vivo
# [4] = test system: chromosome aberration; assay: In vitro genotoxicity: chromosome aberration; format: cell-based
# [5] = test system: blood pressure; assay: Blood pressure in dogs; format: in vivo, dog
# Excerpt: as §1
# [6] = test system: pulmonary endothelial barrier; assay: Pulmonary endothelial barrier after single oral dose; format: in vivo
# Excerpt: as §1
# [7] = test system: peripheral lymphocyte counts; assay: Recovery of absolute lymphocyte counts after S1P modulator dosing in healthy volunteers; format: in vivo, human; conditions: single 1 mg FTY720, BAF312 multiple doses for 28 days, single 3 mg KRP203
# Description: Mocravimod is particularly preferred. […] A measurable parameter that determines maintenance of the mode of action, i.e., sequestering of lymphocytes in secondary lymphoid organs and bone marrow, is reduction of peripheral lymphocyte counts. Recovery of absolute lymphocyte counts to 80% of normal counts after a single 1 mg dose of FTY720, multiple dose applications of BAF312 for 28 days, or a single 3 mg dose of KRP203 was reached after 8, 7 and more than 10 days, respectively.
# [8] = test system: healthy volunteers and patients (ulcerative colitis, subacute cutaneous lupus erythematosus, Crohn's disease); assay: Placebo-controlled clinical trials of KRP203 in healthy volunteers and patients; format: in vivo, human
# Description: The clinical experience with mocravimod includes single doses up to 40 mg in healthy volunteers and multiple doses up to 3 mg/day in healthy volunteers and patients. […] In the phase […] study, mocravimod was administered for up to around 3 months in patients with several different hematologic malignancies receiving allogeneic HSCT. […] However, patient numbers were low and efficacy results warrant more data in a more homogeneous patient population. To gather more data on both doses, this phase IIb study will investigate mocravimod at two different dose levels, a daily dose of 1 mg as well as of 3 mg.
# [9] = test system: patients undergoing allogeneic HSCT for hematological malignancies; assay: Study CKRP203A2105, phase Ib in patients undergoing allogeneic HSCT;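 note: counts of subjects, HLA-matched donor stem cells, transplant on Day 11 following myeloablative chemotherapy conditioning from Day 2 to Day 10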
# Description: The study population comprised of male or female subjects who were diagnosed with a hematological malignancy and qualified for a standard allogeneic HSCT where HLA matched stem cell source was available. Such malignancies included but were not limited to acute myeloid leukemia (AML), acute lymphoid leukemia (ALL), myelodysplastic syndrome (MDS, chronic lymphoid leukemia (CLL), marginal zone and follicular lymphomas, large-cell lymphoma, lymphoblastic, Burkitt's and other high grade lymphomas; mantle-cell lymphoma, lymphoplasmacytic lymphoma; prolymphocytic leukemia or multiple myeloma.
# HSCT was performed on Day 11. In addition to the investigational treatment with KRP203, the activities included conditioning, standard GvHD prophylaxis, infusion of the stem cells, pre and post-transplant supportive care and follow-up assessments according to the institutional practices. Subjects remained hospitalized for two to five days after bone marrow engraftment occurred. The subsequent study visits were ambulatory or in-house, if needed depending on the health status of the subject.
# Myeloablative conditioning was performed between Day 2 and Day 10 as per SOC using chemotherapy.
# As in Part 1, HSCT was performed on Day 11, all other procedures/visits were same as in Part 1.
# [10] = test system: rats; assay: Repeat-dose toxicity studies in rats; format: in vivo
# Excerpt: Transitory activation of phagocytic cells and increased secretion of soluble markers by these cells is considered a main contributing factor to smooth muscle hypertrophy/hyperplasia.
# [11] = test system: rats and rabbits; assay: Reproductive toxicity studies in rats and rabbits; format: in vivo
# [12] = Repeat-dose toxicity studies in mice; conditions: in vivo; 13-week mouse study, 20 mg/kg; read-out: systemic exposure (AUC0-24 h)
# Description: (§2) The kidney was a target organ of toxicity in mice only and only in a 2-week study at doses ≥45 mg/kg.
# (§3) Kidney impairment was most likely the primary cause of death/moribundity seen in this study.
# [13] = test system: mice; assay: Repeat-dose toxicity studies in mice; conditions: mouse, in vivo
# Description: as §2, §3
# [14] = test system: allogeneic-stimulated T cell proliferation; assay: Mixed lymphocyte reactions (MLR); format: cell-based; conditions: therapeutic concentrations in vitro
# Excerpt: KRP203 reduces lymphocyte counts in peripheral blood by more than 80%.
# [15] = biological target: hERG channels (Homo sapiens, UniProt Q12809); assay: hERG channel inhibition in vitro; format: biochemical; conditions: between 0.5 and 10 μM
# Excerpt: as §1
# [16] = test system: contact sensitizing potential; assay: Contact sensitization; conditions: in vivo
# [17] = biological target: CYP3A4 (Homo sapiens, UniProt P08684); assay: Metabolism by CYP enzymes (in vitro data); format: in vitro ADME
# Excerpt: The weak inhibitory effect of ciclosporin on hepatic CYP3A4 is unlikely to relevantly impact the PK of KRP203.
# [18] = test system: micronucleus; assay: In vivo micronucleus study in mice; parameters: species or system mouse
# [19] = Part 1, 3 mg KRP203+CsA, n=10, after 30 days of transplant
# [20] = Part 1, 3 mg KRP203+CsA, n=10, from transplant up to 30 days of transplant
# [21] = Part 1, 3 mg KRP203+CsA, n=10, start of treatment until just before transplant
# [22] = Part 1, after 30 days of transplantation
# [23] = Part 1, start of treatment until just before transplant
# [24] = Part 2, 1 mg KRP203+CsA arm, from transplant up to 30 days after transplant
# [25] = Part 2, after 30 days of transplantation
# [26] = Part 2, following 30 days after transplant
# CYP3A4, sequence (P08684 whole entry): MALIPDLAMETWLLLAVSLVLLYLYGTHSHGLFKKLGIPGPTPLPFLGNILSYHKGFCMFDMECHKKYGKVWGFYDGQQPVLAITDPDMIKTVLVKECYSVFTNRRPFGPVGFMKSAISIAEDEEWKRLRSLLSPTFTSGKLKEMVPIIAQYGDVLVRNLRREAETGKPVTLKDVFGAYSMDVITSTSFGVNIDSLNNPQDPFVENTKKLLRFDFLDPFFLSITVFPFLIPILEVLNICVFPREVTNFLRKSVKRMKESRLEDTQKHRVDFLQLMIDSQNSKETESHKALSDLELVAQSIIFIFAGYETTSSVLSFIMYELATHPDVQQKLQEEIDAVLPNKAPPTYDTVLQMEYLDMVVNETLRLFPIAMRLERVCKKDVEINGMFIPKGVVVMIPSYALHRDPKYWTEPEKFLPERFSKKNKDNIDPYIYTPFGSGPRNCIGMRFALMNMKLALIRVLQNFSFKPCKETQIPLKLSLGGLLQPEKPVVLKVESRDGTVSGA
# hERG channels, sequence (Q12809 whole entry): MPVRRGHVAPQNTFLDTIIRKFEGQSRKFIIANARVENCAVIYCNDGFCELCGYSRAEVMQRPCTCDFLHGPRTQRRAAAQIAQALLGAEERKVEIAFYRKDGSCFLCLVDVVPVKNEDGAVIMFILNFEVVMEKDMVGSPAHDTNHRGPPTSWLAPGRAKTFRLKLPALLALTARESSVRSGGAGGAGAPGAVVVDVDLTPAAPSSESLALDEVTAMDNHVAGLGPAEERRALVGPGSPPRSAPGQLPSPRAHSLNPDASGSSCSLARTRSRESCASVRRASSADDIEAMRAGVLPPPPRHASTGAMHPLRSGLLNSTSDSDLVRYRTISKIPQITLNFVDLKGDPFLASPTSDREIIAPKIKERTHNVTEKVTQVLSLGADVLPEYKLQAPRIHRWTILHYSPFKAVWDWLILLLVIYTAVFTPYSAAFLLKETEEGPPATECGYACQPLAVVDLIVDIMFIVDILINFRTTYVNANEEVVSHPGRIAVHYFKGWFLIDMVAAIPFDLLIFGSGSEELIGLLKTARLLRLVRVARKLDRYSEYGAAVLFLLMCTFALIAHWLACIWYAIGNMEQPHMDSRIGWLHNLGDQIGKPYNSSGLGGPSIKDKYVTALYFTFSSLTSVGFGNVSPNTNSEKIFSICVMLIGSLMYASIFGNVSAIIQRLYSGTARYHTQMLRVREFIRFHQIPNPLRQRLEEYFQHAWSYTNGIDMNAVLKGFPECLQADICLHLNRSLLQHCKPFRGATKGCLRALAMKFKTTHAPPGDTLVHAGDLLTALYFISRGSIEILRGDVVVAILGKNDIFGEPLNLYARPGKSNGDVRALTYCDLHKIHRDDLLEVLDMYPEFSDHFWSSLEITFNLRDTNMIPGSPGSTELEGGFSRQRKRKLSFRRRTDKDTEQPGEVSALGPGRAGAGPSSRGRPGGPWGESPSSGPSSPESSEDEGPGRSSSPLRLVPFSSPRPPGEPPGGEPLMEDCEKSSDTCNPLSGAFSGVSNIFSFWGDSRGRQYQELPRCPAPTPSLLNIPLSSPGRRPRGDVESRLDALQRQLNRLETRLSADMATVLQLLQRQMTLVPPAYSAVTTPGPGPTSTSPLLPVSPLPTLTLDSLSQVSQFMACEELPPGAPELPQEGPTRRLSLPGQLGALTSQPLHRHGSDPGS
smiles,measurement,setting,value
"NC(CO)(CO)CCc1ccc(Sc2cccc(OCc3ccccc3)c2)cc1Cl [KRP203, 2-amino-2-[4-(3-benzyloxyphenylthio)-2-chlorophenyl] ethyl-propane-1,3-diol]",effects on bronchoconstrictor response induced by challenge agents,[1],no significant effects
same,genotoxic potential,[2],no evidence for a genotoxic potential
same,accumulation after repeated dosing (4 and 13 weeks),[3],no evidence of accumulation
same,genotoxic potential,[4],no evidence for a genotoxic potential
same,"potential to increase blood pressure, extrapolated exposure",[5],20.3 µM
same,effect on pulmonary endothelial barrier,[6],mildly decreased pulmonary endothelial barrier
same,Recovery of absolute lymphocyte counts to 80% of normal counts,[7],more than 10 days
same,tolerability,[8],well tolerated
same,subjects with AEs that resulted in discontinuation of study drug,[9]; 1 mg KRP203+CsA arm,33%
same,safety profile between dose groups,[9]; 1 mg/day plus CsA or 3 mg/day plus CsA or TAC,comparable between the 1 mg and 3 mg mocravimod dose groups
same,subjects with AEs that resulted in discontinuation of study drug,[9]; 3 mg KRP203+CsA arm,29%
same,subjects with AEs that resulted in discontinuation of study drug,[9]; 3 mg KRP203+Tac arm,14%
same,"subjects with AEs, SOC general disorders and administration site conditions",[9]; [19],60%
same,"subjects with AEs, SOC immune system disorders",[9]; [19],100%
same,"subjects with AEs, SOC infection and infestations",[9]; [19],50%
same,subjects with acute GvHD in intestine,[9]; [19],30%
same,subjects with acute GvHD in skin,[9]; [19],30%
same,subjects with chronic GvHD,[9]; [19],70%
same,subjects with chronic GvHD in intestine,[9]; [19],20%
same,subjects with chronic GvHD in liver,[9]; [19],50%
same,subjects with chronic GvHD in skin,[9]; [19],30%
same,subjects with diarrhea,[9]; [19],20%
same,subjects with edema peripheral,[9]; [19],40%
same,subjects with edema peripheral suspected related to study treatment,[9]; [19],20%
same,subjects with eyelid edema,[9]; [19],20%
same,subjects with nausea,[9]; [19],20%
same,subjects with rash,[9]; [19],20%
same,"subjects with AEs, SOC gastrointestinal disorder",[9]; [20],70%
same,"subjects with AEs, SOC immune system disorders",[9]; [20],30%
same,"subjects with AEs, SOC nervous system disorders",[9]; [20],30%
same,"subjects with AEs, SOC respiratory, thoracic and mediastinal disorders",[9]; [20],40%
same,"subjects with AEs, SOC vascular disorders",[9]; [20],30%
same,subjects with acute GvHD in intestine,[9]; [20],30%
same,subjects with capillary leak syndrome (suspected related to study treatment),[9]; [20],20%
same,subjects with nausea,[9]; [20],20%
same,subjects with pleural effusion (suspected related to study treatment),[9]; [20],20%
same,subjects with vomiting,[9]; [20],60%
same,"subjects with AEs, SOC gastrointestinal disorders",[9]; [21],60%
same,subjects with bradycardia,[9]; [21],20%
same,subjects with bradycardia suspected related to study treatment,[9]; [21],20%
same,subjects with hypertension suspected related to study treatment,[9]; [21],10%
same,subjects with nausea,[9]; [21],20%
same,subjects with sinus arrest suspected related to study treatment,[9]; [21],10%
same,subjects with vomiting,[9]; [21],40%
same,subjects reporting AEs,"[9]; Part 1, after 30 days of study treatment",all subjects
same,"subjects with serious AEs suspected related (cystoid macular edema, dyspnea exertional, edema peripheral)","[9]; Part 1, after 30 days of transplant, mild severities",10%
same,subjects with SAEs,[9]; [22],40%
same,"subjects with SAEs, general disorders and administration site conditions",[9]; [22],30%
same,"subjects with SAEs, infections and infestations",[9]; [22],20%
same,"subjects with SAEs, neoplasms benign, malignant and unspecified",[9]; [22],20%
same,"subjects with serious AEs (acute GvHD, dyspnea and weight increased)","[9]; Part 1, from transplant up to 30 days after the transplant",20%
same,subjects reporting AEs,[9]; [23],seven subjects
same,subjects with serious AE of vomiting,[9]; [23],10%
same,subjects reporting AEs,"[9]; Part 1, up to 30 days of transplant",nine subjects
same,subjects with serious AEs of blepharitis and cystoid macular edema,[9]; [24],10%
same,"subjects with serious AEs suspected related (blepharitis Grade 2, cystoid macular edema Grade 3)",[9]; [24],17%
same,subjects with at least one AE,"[9]; Part 2, both treatment arms (n=13), in each of the three periods",100%
same,subjects with serious AE acute GvHD in intestine,[9]; [25],23%
same,subjects with serious AE diarrhea,[9]; [25],15%
same,subjects with serious AE general physical health deterioration,[9]; [25],15%
same,"incidence each of febrile bone marrow aplasia, hepatic failure, Hodgkin's disease, macular ischemia and retinal ischemia (related SAEs)",[9]; [26],8%
same,subjects with serious AEs suspected related to study treatment,[9]; [26],31%
same,serious AEs,"[9]; Part 2, start of treatment until just before transplant",No serious AE
same,study discontinuation due to AEs,[9]; all 23 treated subjects,13%
same,study discontinuation due to death,[9]; all 23 treated subjects,9%
same,deaths reported,"[9]; overall, during the study, one-year and long-term follow-up period",seven
same,local tolerability in the gastro-intestinal tract,[10]; oral dosing in rats or dogs up to 26 or 13 weeks,no indication for impaired local tolerability
same,hepatic effects,"[10]; rats and mice, not in dogs",mild and did only occur at high dose levels
same,no mortality up to daily dose,"[10]; rats, up to 26-week",≤ 50 mg/kg
same,no effects on male fertility up to highest dose,[11]; in vivo,≤ 20 mg/kg
same,NOAEL for embryo lethality and malformations,[11]; rat study,no NOAEL
same,reproductive toxicity,[11]; rats and rabbits,"teratogenic potential and effects on the reproductive tract, resulting in embryo lethality and malformations at low doses"
same,AUC0-24,[12],~7250 ng·h/mL
same,doses with kidney toxicity,"[13]; both, 2 weeks",≥ 45 mg/kg
same,doses with mortality,"[13]; both, 2 weeks",≥ 45 mg/kg/day
same,no kidney changes up to highest dose level,[13]; 13 weeks,≤ 20 mg/kg
same,inhibition of allogeneic-stimulated T cell proliferation,[14],does not inhibit
same,inhibition of hERG channels,[15],slight inhibitory potential
same,contact sensitizing potential,[16],does not have a contact sensitizing potential
same,metabolism by CYP enzymes,[17],only to a limited extent
same,metabolism by CYP enzymes,[17]; listed as Mocravimod,mainly metabolized by the enzyme CYP3A4
same,genotoxic potential,[18],no evidence for a genotoxic potential
